According to patent US11388902B2, “Pesticidally active cyclopropyl methyl amide derivatives” (SYNGENTA PARTICIPATIONS AG, priority 2017, dated 2022):

Legend:
Format in all cases: in vivo
[1] = tested on: Diabrotica balteata (Corn Root Worm); assay: Diabrotica balteata (corn root worm) on sprayed maize sprouts; conditions: 96 h, application rate of 200 ppm, L2 larvae, 4 days after infestation, in comparison to untreated samples, read-out: effect in at least one of the two categories (mortality or growth inhibition)
Experimental: Example B1: Diabrotica balteata (Corn Root Worm)
Maize sprouts placed onto an agar layer in 24-well microtiter plates were treated with aqueous test solutions prepared from 10′000 ppm DMSO stock solutions by spraying. After drying, the plates were infested with L2 larvae (6 to 10 per well). The samples were assessed for mortality and growth inhibition in comparison to untreated samples 4 days after infestation.

[2] = tested on: Plutella xylostella (Diamond Back Moth); assay: Plutella xylostella (diamond back moth) artificial diet test; conditions: 120 h, application rate of 200 ppm, L2 larvae, 5 days after infestation, in comparison to untreated samples, read-out: effect in at least one of the two categories (mortality or growth inhibition)
Experimental: Example B3: Plutella xylostella (Diamond Back Moth)
24-well microtiter plates with artificial diet were treated with aqueous test solutions prepared from 10′000 ppm DMSO stock solutions by pipetting. After drying, the plates were infested with L2 larvae (10 to 15 per well). The samples were assessed for mortality and growth inhibition in comparison to untreated samples 5 days after infestation.

[3] = tested on: Thrips tabaci (Onion Thrips); assay: Thrips tabaci (onion thrips) feeding/contact activity, sunflower leaf discs; conditions: foliar, 144 h, application rate of 200 ppm, thrips population of mixed ages, 6 days after infestation
Experimental: Example B6: Thrips tabaci (Onion Thrips) Feeding/Contact Activity
Sunflower leaf discs were placed on agar in 24-well microtiter plates and sprayed with aqueous test solutions prepared from 10′000 ppm DMSO stock solutions. After drying the leaf discs were infested with a thrips population of mixed ages. The samples were assessed for mortality 6 days after infestation.

[4] = tested on: Spodoptera littoralis (Egyptian Cotton Leaf Worm); assay: Spodoptera littoralis (Egyptian cotton leaf worm) cotton leaf disc test; conditions: foliar, 72 h, application rate of 200 ppm, L1 larvae, 3 days after infestation, in comparison to untreated samples, read-out: control (mortality, anti-feeding effect, or growth inhibition)
Experimental: Example B4: Spodoptera littoralis (Egyptian Cotton Leaf Worm)
Cotton leaf discs were placed onto agar in 24-well microtiter plates and sprayed with aqueous test solutions prepared from 10′000 ppm DMSO stock solutions. After drying the leaf discs were infested with five L1 larvae. The samples were assessed for mortality, anti-feeding effect, and growth inhibition in comparison to untreated samples 3 days after infestation. Control of Spodoptera littoralis by a test sample is given when at least one of the categories mortality, anti-feedant effect, and growth inhibition is higher than the untreated sample.

[5] = tested on: Myzus persicae (Green Peach Aphid); assay: Myzus persicae (green peach aphid) sucrose solution feeding test; conditions: 120 h, test rate of 12 ppm, 5 days after infestation
Source text: Example B2: Myzus persicae (Green Peach Aphid)
Test compounds prepared from 10′000 ppm DMSO stock solutions were applied by pipette into 24-well microtiter plates and mixed with sucrose solution. The plates were closed with a stretched Parafilm. A plastic stencil with 24 holes was placed onto the plate and infested pea seedlings were placed directly on the Parafilm. The infested plate was closed with a gel blotting paper and another plastic stencil and then turned upside down. The samples were assessed for mortality 5 days after infestation.

[6] = tested on: Tetranychus urticae (Two-Spotted Spider Mite); assay: Tetranychus urticae (two-spotted spider mite) feeding/contact activity, bean leaf discs; conditions: foliar, 192 h, application rate of 200 ppm, 8 days after infestation, read-out: mortality on mixed population (mobile stages)
Experimental: Example B5: Tetranychus urticae (Two-Spotted Spider Mite):Feeding/Contact Activity
Bean leaf discs on agar in 24-well microtiter plates were sprayed with aqueous test solutions prepared from 10′000 ppm DMSO stock solutions. After drying the leaf discs were infested with a mite population of mixed ages. The samples were assessed for mortality on mixed population (mobile stages) 8 days after infestation.

N#CC1(CNC(=O)c2ccc(C3=NOC(c4cc(Cl)cc(Cl)c4)(C(F)(F)F)C3)cn2)CC1 (racemic) [Compound D01, N-[(1-cyanocyclopropyl)methyl]-5-[5-(3,5-dichlorophenyl)-5-(trifluoromethyl)-4H-isoxazol-3-yl]pyridine-2-carboxamide]
≥ 80%: percent effect (mortality or growth inhibition) at 200 ppm [1] | percent effect (mortality or growth inhibition) at 200 ppm [2] | mortality at 200 ppm [3]

Cc1cc(C2=NOC(c3cc(Cl)cc(Cl)c3)(C(F)(F)F)C2)ncc1C(=O)NCC1(C#N)CC1 (racemic) [Compound D02, N-[(1-cyanocyclopropyl)methyl]-6-[5-(3,5-dichlorophenyl)-5-(trifluoromethyl)-4H-isoxazol-3-yl]-4-methyl-pyridine-3-carboxamide]
≥ 80%: percent effect (mortality or growth inhibition) at 200 ppm [1] | percent control (mortality, anti-feedant effect or growth inhibition) at 200 ppm [4] | percent effect (mortality or growth inhibition) at 200 ppm [2] | mortality at 12 ppm [5] | mortality at 200 ppm [3] | mortality at 200 ppm [6]

Cc1cc(C2=NO[C@@](c3cc(Cl)c(F)c(Cl)c3)(C(F)(F)F)C2)ccc1C(=O)NCC1(C#N)CC1 [Compound A01, N-[(1-cyanocyclopropyl)methyl]-4-[(5S)-5-(3,5-dichloro-4-fluoro-phenyl)-5-(trifluoromethyl)-4H-isoxazol-3-yl]-2-methyl-benzamide]
≥ 80%: percent effect (mortality or growth inhibition) at 200 ppm [1] | percent control (mortality, anti-feedant effect or growth inhibition) at 200 ppm [4] | percent effect (mortality or growth inhibition) at 200 ppm [2] | mortality at 12 ppm [5] | mortality at 200 ppm [3] | mortality at 200 ppm [6]

Cc1cc(C2=NO[C@@](c3cc(Cl)c(F)c(Cl)c3)(C(F)(F)F)C2)ccc1C(=O)NCC1(C(N)=S)CC1 [Compound B01, N-[(1-carbamothioylcyclopropyl)methyl]-4-[(5S)-5-(3,5-dichloro-4-fluoro-phenyl)-5-(trifluoromethyl)-4H-isoxazol-3-yl]-2-methyl-benzamide]
≥ 80%: percent effect (mortality or growth inhibition) at 200 ppm [1] | percent control (mortality, anti-feedant effect or growth inhibition) at 200 ppm [4] | percent effect (mortality or growth inhibition) at 200 ppm [2] | mortality at 12 ppm [5] | mortality at 200 ppm [3] | mortality at 200 ppm [6]

Cc1cc(C2=NO[C@@](c3cc(Cl)c(F)c(Cl)c3)(C(F)(F)F)C2)ccc1C(=O)NCC1(C(N)=O)CC1 [Compound C01, N-[(1-carbamoylcyclopropyl)methyl]-4-[(5S)-5-(3,5-dichloro-4-fluoro-phenyl)-5-(trifluoromethyl)-4H-isoxazol-3-yl]-2-methyl-benzamide]
≥ 80%: percent effect (mortality or growth inhibition) at 200 ppm [1] | percent control (mortality, anti-feedant effect or growth inhibition) at 200 ppm [4] | percent effect (mortality or growth inhibition) at 200 ppm [2] | mortality at 12 ppm [5] | mortality at 200 ppm [3] | mortality at 200 ppm [6]

Cc1cc(C2=NO[C@@](c3cc(Cl)c(F)c(Cl)c3)(C(F)(F)F)C2)ccc1C(=O)NC(C)C1(C#N)CC1 (stereo partly drawn) [Compound E01, N-[1-(1-cyanocyclopropyl)ethyl]-4-[(5S)-5-(3,5-dichloro-4-fluoro-phenyl)-5-(trifluoromethyl)-4H-isoxazol-3-yl]-2-methyl-benzamide]
≥ 80%: percent control (mortality, anti-feedant effect or growth inhibition) at 200 ppm [4] | percent effect (mortality or growth inhibition) at 200 ppm [2] | mortality at 200 ppm [3]

CCOC(=O)N(CC1(C#N)CC1)C(=O)c1ccc(C2=NO[C@@](c3cc(Cl)c(F)c(Cl)c3)(C(F)(F)F)C2)cc1C [Compound F01, ethyl N-[(1-cyanocyclopropyl)methyl]-N-[4-[(5S)-5-(3,5-dichloro-4-fluoro-phenyl)-5-(trifluoromethyl)-4H-isoxazol-3-yl]-2-methyl-benzoyl]carbamate]
≥ 80%: percent effect (mortality or growth inhibition) at 200 ppm [1] | percent control (mortality, anti-feedant effect or growth inhibition) at 200 ppm [4] | percent effect (mortality or growth inhibition) at 200 ppm [2] | mortality at 200 ppm [3] | mortality at 200 ppm [6]
